Results published in patent publication US20250352654A1, “PHARMACEUTICAL AGENT CONJUGATES TO MODULATE MACROPHAGE AND INFLAMMATORY FUNCTIONS AND USES THEREOF” (REGENTS OF THE UNIVERSITY OF MINNESOTA, priority 2022, published 2025).
Like-named read-outs stand apart in the source and are kept apart here. Bridge positions count the residues as written; N and C are the ends. Square brackets hold non-standard residues; d marks the D form. Ends that are not written are not given here. FAM = fluorescein amidite (fluorescein); Ahx = NCCCCCC(=O)O

Experiments:
[1] = In vivo pharmacokinetics of PSL conjugates; conditions: male, C57BL/6, mouse, plasma, iv, healthy mice, 1 mg kg-1 equivalent dose of PSL
Description: FIG. 2U discloses mean plasma concentration-time curves of PSL following intravenous administration of free PSL, Cys-PSL and CRV-PSL with an equivalent PSL dosage at 1 mg kg^−1. All the animal experiments were performed in 3-4 mice per group. The data are presented as the mean±standard deviation (SD). Statistical significance was calculated using Student's t test. *P<0.05, **P<0.01, CRV-PSL vs free PSL group; #P<0.05, ##P<0.01, ###P<0.001 Cys-PSL vs free PSL group.
HPLC-MS/MS analysis was performed using the chromatographic system consisted of UltiMate™ 3000 RSLCnano System (Thermo Fisher Scientific) and a ZORBAX™ C18 column (5 μm, 150 mm 0.5 mm, Agilent, Santa Clara, CA). The mobile phase was a mixture of H2O/acetonitrile with a gradient elution (from 90:10 to 10:90 and return to 90:10, v/v) at a flow rate of 15 μl/min. The eluent was introduced directly into the electrospray source of a tandem quadrupole mass spectrometer (TSQ VANTAGE™, Thermo Fisher Scientific) that was operated in the positive mode. The spray voltage was set at 3000 V. The compounds were analyzed by multiple reaction monitoring (MRM) of the transitions of m/z (ESI+) 361.24→147.06 for PSL.
Healthy male C57BL/6 mice (8- to 9-weeks-old; body weight of 25-30 g) were deprived of food overnight with free access to water. […]
We first evaluated the plasma pharmacokinetics of CRV-PSL in healthy mice.

[2] = assay type: in vivo, mouse; conditions: for Thymus weight: mean; for Lymphocytes (count of total blood lymphocytes) / T cells (CD45+CD3+) count: normalized to the vehicle group
Description: (C and D) Flow-cytometry analysis of blood cell populations in mice with different treatment. The count of (C) blood lymphocytes and (D) T cells in mice receiving different treatment were normalized to the vehicle group. […] The weight of thymus was measured, and the blood was collected for flow cytometry 4 h after the third dose of treatment. All experiments were performed in 3-4 mice per group, and the experiment was repeated three times. Data shown are mean±SD. Student's t test was performed for statistical analysis. *p<0.05, **p<0.01, ***p<0.001.
The gating was started with choosing the live cells by plotting SSC-A vs. FSC-A. Single cells were then selected by plotting FSC-A vs. FSC-H for the live cells followed by subpopulation of CD45+ cells. The lymphocytes were selected by plotting CD45+ cells and SSC-A, which were then selected for T cells by CD3 staining. The tissues and the blood were collected 4 hours after the third dose of treatment. All experiments were performed in 3-4 mice per group and the experiment was repeated three times. The data are presented as the mean±standard deviation (SD). Statistical significance was calculated using Student's t test.
To identify subpopulations of myeloid cells, single cell suspensions were collected from the lung with a lung dissociation kit for mouse (Miltenyi Biotec, Auburn, CA) and other tissues, including blood and spleen, were collected for flow cytometry analysis. […] Flow cytometry analysis was performed on a BD Fortessa™ X-20 (BD Biosciences, East Rutherford, NJ). The data were analyzed with Flow JO™ software (Tree Star, San Carlos, CA).

[3] = test system: 4T1 breast cancer tumor; experiment: Tumor accumulation of D-CRV and L-CRV after oral administration; assay type: in vivo, mouse; conditions: 4 hours, IF
Description: FAM-labeled L-CRV or D-CRV was orally administered to tumor-bearing mice.
To compare the in vivo distributions of the D-isoform of CRV (D-CRV) and the L-isoform of CRV (L-CRV), fluorescein (FAM) dye labeled D-CRV and L-CRV peptides were synthesized. 100 μL of peptide solution (5 mg/mL in PBS) was administered via oral gavage into mice bearing a 4T1 breast cancer tumor (for a description of how this mouse model is generated, see J Control Release 301:42-53, 2019) 4 hours before the tumors were collected. Peptide accumulation in the tumor was observed by immunofluorescence (IF) staining of FAM. We had previously shown that L-CRV homes to such tumors following intravenous injection. […] Additionally, (D)-CRV-DEX was first applied to RA mice model via subcutaneous administration with hydrogel. […] The pharmacokinetics (PK) and biodistribution at other time points will be further evaluated.

[4] = test system: inflamed lung; experiment: CRV peptide homing in LPS-induced ALI mice (IHC/IF); assay type: in vivo, mouse; conditions: healthy (PBS) mice; FAM-labeled peptide i.v., 1 h; IHC and IF
Description: (A) Representative immunohistochemistry (IHC) images of targeting RXRB by CRV peptide in the lung of acute lung injury (ALI) mice. Control (PBS) or ALI (LPS-treated) mice were intravenously injected with FAM-labeled CRV or a control peptide (GGS) for 1 h homing, respectively. The lungs were collected for IHC analysis on whole-cell RXRB expression (left) and peptide amount (detected by anti-FITC antibody, right). (B) Quantification of FITC expression for FAM-labeled peptides in the lungs by IHC staining. (C) Representative immunofluorescence (IF) images of colocalization of rabbit anti-RXRB antibody with CD11b in PBS controls (top) and acute lung injury (ALI) mice (bottom). The lungs were collected for IF staining for the indicated markers after 6 h in vivo homing by intravenous injection of 25 mg of rabbit polyclonal RXRB antibodies in […] of PBS in mice. The mice receiving intratracheal injection of PBS served as healthy controls. All the animal experiments were performed in three mice per group. (D) Relative percentage of RXRB-positive cells in different tissues of ALI mice. […] The fluorescence intensity for CRV or GGS binding per cells was plotted in the histograms. […] (H) Quantification of RXRB in IHC sections from lungs of human subjects with ILD. […] FAM, carboxyfluorescein; FITC, fluorescein iso-thiocyanate; A.U., arbitrary units; MFI, mean fluorescence intensity; Neg, negative. […]

[5] = test system: arthritic joints; experiment: CRV accumulation in joints of K/BxN serum-transfer arthritis mice (IHC); assay type: in vivo, mouse; conditions: FAM peptide i.v., 1 hour
Description: (B) The arthritic mice were injected intravenously with a control peptide (GGS, top) or CRV (bottom). The mice were sacrificed after 1 hour and joints were collected for IHC staining.
FIGS. 7B-7D illustrates In vivo CRV peptide distribution in arthritic mouse models. (B) Scheme of synthesis of 64Cu-DOTA-CRV. (C) Representative immunohistochemistry (IHC) images of peptide accumulation in the tissues of collagen-induced-arthritis (CIA) mice with anti-FITC antibody for FAM-labeled CRV and FAM-GGS, upon intravenous injection for 1 h, respectively. Scale bars: 100 μm. (D) Representative IHC images of CRV-peptide and a control peptide (GGS) accumulation in the ankle joints of K/B×N serum-transfer arthritic mice at 1 h post intravenous injection as detected by FAM signals with anti-FITC antibody. Scale bar: 200 μm for 10× magnification; 100 μm for 20× magnification. All the animal experiments were performed in 3 mice per group. DOTA, 1,4,7,10-tetraazacyclododocane tetraacetic acid; FAM, carboxyfluorescein; FITC, fluorescein isothiocyanate.
To study the accumulation of CRV in inflamed joints, 100 μl of fluorescein (FAM)-CRV peptide solution (1 mg/ml in PBS) and the control peptide, GGS (SEQ ID NO: 2), was injected intravenously into mice with K/B×N serum-transfer arthritis (for a description of this mouse model, see VetPathol 52(5):819-26, 2015). […]

[6] = 0.1 or 1 mg kg-1 PSL equivalent

Compound: C[C@]12C=CC(=O)C=C1CC[C@@H]1[C@@H]2[C@@H](O)C[C@@]2(C)[C@H]1CC[C@]2(O)C(=O)CO [Free PSL, prednisolone]
- AUC(0-t) ([1]; mean (n = 3)): 41300 ng·h/mL
- half-life ([1]; mean ± SD (n = 3)): 3.78 ± 0.5 h
- Thymus weight ([2]; 0.1 mg kg-1 PSL equivalent i.v. every 2 days for 5 days): 36.3 mg
- Lymphocytes (count of total blood lymphocytes) ([2]; 0.1 mg kg-1 PSL equivalent): 0.45 fold changes
- T cells (CD45+CD3+) count ([2]; 0.1 mg kg-1 PSL equivalent): 0.47 fold changes
- Thymus weight ([2]; 1 mg kg-1 PSL equivalent i.v. every 2 days for 5 days): 28.3 mg
- Lymphocytes (count of total blood lymphocytes) ([2]; 1 mg kg-1 PSL equivalent): 0.27 fold changes
- T cells (CD45+CD3+) count ([2]; 1 mg kg-1 PSL equivalent): 0.40 fold changes
- apoptosis in the thymus and other organs (TUNEL) [2, 6]: increases the level of apoptosis mainly in the thymus
- counts of total lymphocytes and T subsets (in words) [2, 6]: reduced the counts of total lymphocytes and T subsets
- thymus weight (in words) ([2]; 0.1 or 1 mg kg-1 PSL equivalent i.v. every two days for five days): greatest reduction in thymus weight

Compound: D-CRV: D-isoform of CRV (SEQ ID NO: 52), fluorescein (FAM) dye labeled ([dC][dR][dV][dL][dR][dS]G[dS][dC]; disulfide 1-9 (inferred); also: FAM label, position not given here)
- peptide accumulation in the tumor ([3]; FAM-labeled peptide, oral gavage 100 uL of 5 mg/mL): significant accumulation of CRV in the tumors
- colocalization with CD11b in the tumor ([3]; oral gavage): colocalization with the myeloid cell marker CD11b in the tumor

Compound: GGS: control peptide <FAM>-<Ahx>-GGSGGSKG (SEQ ID NO: 2) ({FAM-Ahx}-GGSGGSKG)
- peptide accumulation in the healthy lung [4]: little accumulation
- peptide accumulation in arthritic joints [5]: few FAM signals were detected
